{
  "source": "patent US20240358015A1",
  "about": "“HERBICIDAL COMPOSITIONS” (Agrematch Ltd., priority 2021, published 2024)",
  "key": {"Amaranthus palmeri [1]": {"system": "Amaranthus palmeri", "assay": "Net-house post-emergence assay (Example 6)", "assay_type": "in vivo", "conditions": "750 g/ha, 0.05% MIPA", "method": "Post-emergence herbicidal activity was tested on Amaranthus palmeri weeds species that were grown in a net-house. Average daily minimum and maximum temperatures during the assay were 20.5° C./[…], respectively. Leaf stage at the time of application was 3-4. In each treatment, 3 flowerpots (7 cm×7 cm×6 cm) containing about 3-6 plants, were sprayed using a VL-SET Paasche Airbrush with a […] 0.75 mg/ml of the tested compound, which is equivalent to 750 g/ha.\n(§1) Damage assessment: Herbicidal activity was assessed and scored 1-12 days after application by visual inspection of the plants in comparison to plants treated with the formulation alone (with no active ingredient) as control. Activity score is in the range of 0 to 100, where 0 represents no herbicidal activity like control plants and 100 represents the maximal herbicidal activity (i.e., total death of the plant)."}, "Setaria viridis [2]": {"system": "Setaria viridis", "assay": "Growth-chamber post-emergence assay, low application rates (Example 5)", "assay_type": "in vivo", "method": "(§2) Herbicidal activity of Compound 1 was determined by post-emergence application on 8-day old plants (weeds) of the Amaranthus palmeri and Setaria viridis species that were grown at 16 hours/8 hours day/night cycles at 30° C./25° C., respectively. Leaf stage was typically 4-6 for A. palmeri and 3-4 for S. viridis.\n(§3) In each treatment, between 1 to 3 pots (8×12 cm), containing about 6 Amaranthus palmeri or Setaria viridis plants, were sprayed using a VL-SET Paasche Airbrush with a 1 ml-solution containing 0.1-0.375 mg/ml of the tested compound, which is equivalent to about 100-375 g/ha.\nas §1, with “3-4” for “1-12”"}, "Amaranthus palmeri [3]": {"system": "Amaranthus palmeri", "assay": "Growth-chamber post-emergence assay, low application rates (Example 5)", "assay_type": "in vivo", "method": "as §2, §3\nas §1, with “3-4” for “1-12”"}, "S. viridis": {"system": "S. viridis", "assay": "Growth-chamber post-emergence assay on various weed species (Example 7)", "assay_type": "in vivo, Setaria viridis", "conditions": "0.05% Break-Thru", "method": "Herbicidal activity of Compound 1 was determined by post-emergence application on various weed species. 8-14 day old plants (weeds) were grown at 16 hours/8 hours day/night cycles at 30° C./25° C., respectively. Leaf stage was typically 2-6.\nIn each treatment, 3 pots (either 7×7 or 8×12 cm), containing about 3-6 plants each, were sprayed using a VL-SET Paasche Airbrush with a 1-1.5 ml-solution containing 0.5-1.5 mg/ml of the tested compound, which is equivalent to about 500-1500 g/ha.\nas §1, with “3-4” for “1-12”"}, "Setaria viridis [4]": {"system": "Setaria viridis", "assay": "Growth-chamber post-emergence herbicidal assay (Example 2)", "assay_type": "in vivo", "conditions": "1000 g/ha, 3-4 days after application", "method": "Herbicidal activity was determined by post-emergence application on 8-day old plants (weeds) of the Amaranthus palmeri and Setaria viridis species that were grown at 16 hours/8 hours day/night cycles at 30° C./25° C., respectively. Leaf stage was typically 4-6 for A. palmeri and 3-4 for S. viridis.\nIn each treatment, 2-3 pots, each containing about 5 plants each (for Setaria viridis), and one 9-pack, containing about 9 plants (for Amaranthus palmeri), were sprayed using a VL-SET Paasche Airbrush with 0.3-1.5 ml solution containing 0.125-2 mg/ml of a tested compound, which is equivalent to about 125-2000 g/ha.\nas §1, with “3-4” for “1-12”\nHerbicidal activity scores 3-4 days after application are presented Table 3 below."}, "Echinochloa colonum": {"system": "Echinochloa colonum", "assay": "Growth-chamber post-emergence assay on additional weeds (Example 2)", "assay_type": "in vivo", "conditions": "1000 g/ha; 13-day old plants; 3 days after application; scale 0-100", "method": "(§4) Herbicidal activity of Compound 1 was determined by post-emergence application on 13-day old Echinochloa colonum, Lolium multiflorum and Solanum nigrum.\n(§5) In each treatment, 3 pots, each containing about 5 plants, were sprayed using the same conditions as described above which are equivalent to 1000 g/ha. Herbicidal activity was assessed and scored 3 days after application by visual inspection of the weeds. Activity score is in the range of 0 to 100, where 0 represents no herbicidal activity like control plants and 100 represents the maximal herbicidal activity (i.e., total death of the plant). The obtained data is presented in Table 6 below per the activity score as described herein."}, "Lolium multiflorum": {"system": "Lolium multiflorum", "assay": "Growth-chamber post-emergence assay on additional weeds (Example 2)", "assay_type": "in vivo", "conditions": "1000 g/ha; 13-day old plants; 3 days after application; scale 0-100", "method": "as §4, §5"}, "Solanum nigrum": {"system": "Solanum nigrum", "assay": "Growth-chamber post-emergence assay on additional weeds (Example 2)", "assay_type": "in vivo", "conditions": "1000 g/ha; 13-day old plants; 3 days after application; scale 0-100", "method": "as §4, §5"}, "[5]": {"conditions": "125 g/ha, 0.8% MIPA, 0.25% Genapol, 2% DASH EC"}, "[6]": {"conditions": "125 g/ha, 0.8% MIPA, 2% DASH EC"}, "[7]": {"conditions": "150 g/ha, 0.8% MIPA, 0.25% Genapol, 1% AGNIQUE, 0.05% Ca-LAS, 0.02% BSU"}, "[8]": {"conditions": "150 g/ha, 0.8% MIPA, 0.25% Genapol, 2% HASTEN"}, "[9]": {"conditions": "200 g/ha, 0.21% MIPA, 0.25% Genapol, 1% AGNIQUE, 0.05% Ca-LAS, 0.02% BSU"}, "[10]": {"conditions": "200 g/ha, 0.8% MIPA, 0.25% Genapol, 1% AGNIQUE, 0.05% Ca-LAS, 0.02% BSU"}, "[11]": {"conditions": "375 g/ha, 0.8% MIPA, 0.25% Genapol, 1% AGNIQUE, 0.05% Ca-LAS, 0.02% BSU"}, "[12]": {"conditions": "375 g/ha, 0.8% MIPA, 2% TWEEN20, 1% AGNIQUE, 0.05% Ca-LAS, 0.02% BSU, 0.05% Break-Thru, 3-4 days after application, scale 0-100"}},
  "data": [
    {"smiles": "O=C(O)c1cc(O)c2c(c1)C(=O)c1cccc(O)c1C2=O", "note": "[Compound 1, Rhein]", "values": [
      {"measurement": "Herbicidal activity score", "setting": "Amaranthus palmeri [1]; 2% Hasten, 0.05% Break-Thru, 1 DAT", "value": 95},
      {"measurement": "Herbicidal activity score", "setting": "Amaranthus palmeri [1]; 2% Hasten, 0.05% Break-Thru, 3 DAT", "value": 95},
      {"measurement": "Herbicidal activity score", "setting": "Amaranthus palmeri [1]; 2% Hasten, 0.05% Break-Thru, 5 DAT", "value": 90},
      {"measurement": "Herbicidal activity score", "setting": "Amaranthus palmeri [1]; 2% Hasten, 0.05% Break-Thru, 7 DAT", "value": 90},
      {"measurement": "Herbicidal activity score", "setting": "Amaranthus palmeri [1]; 2% Hasten, 0.05% Break-Thru, 12 DAT", "value": 80},
      {"measurement": "Herbicidal activity score", "setting": "Amaranthus palmeri [1]; 2% TWEEN20, 0.05% Break-Thru, 1 DAT, scale 0-100", "value": 95},
      {"measurement": "Herbicidal activity score", "setting": "Amaranthus palmeri [1]; 2% TWEEN20, 0.05% Break-Thru, 3 DAT", "value": 100},
      {"measurement": "Herbicidal activity score", "setting": "Amaranthus palmeri [1]; 2% TWEEN20, 0.05% Break-Thru, 5 DAT", "value": 100},
      {"measurement": "Herbicidal activity score", "setting": "Amaranthus palmeri [1]; 2% TWEEN20, 0.05% Break-Thru, 7 DAT", "value": 100},
      {"measurement": "Herbicidal activity score", "setting": "Amaranthus palmeri [1]; 2% TWEEN20, 0.05% Break-Thru, 12 DAT", "value": 100},
      {"measurement": "Herbicidal activity score", "setting": "Setaria viridis [2]; [5]", "value": 23},
      {"measurement": "Herbicidal activity score", "setting": "Setaria viridis [2]; [6]", "value": 43},
      {"measurement": "Herbicidal activity score", "setting": "Setaria viridis [2]; [7]", "value": 70},
      {"measurement": "Herbicidal activity score", "setting": "Setaria viridis [2]; [8]", "value": 65},
      {"measurement": "Herbicidal activity score", "setting": "Setaria viridis [2]; [9]", "value": 65},
      {"measurement": "Herbicidal activity score", "setting": "Setaria viridis [2]; [10]", "value": 88},
      {"measurement": "Herbicidal activity score", "setting": "Setaria viridis [2]; [11]", "value": 78},
      {"measurement": "Herbicidal activity score", "setting": "Setaria viridis [2]; [12]", "value": 75},
      {"measurement": "Herbicidal activity score", "setting": "Amaranthus palmeri [3]; 100 g/ha, 0.8% MIPA, 0.25% Genapol, 2% DASH EC", "value": 90},
      {"measurement": "Herbicidal activity score", "setting": "Amaranthus palmeri [3]; [5]", "value": 93},
      {"measurement": "Herbicidal activity score", "setting": "Amaranthus palmeri [3]; [6]", "value": 65},
      {"measurement": "Herbicidal activity score", "setting": "Amaranthus palmeri [3]; [7]", "value": 85},
      {"measurement": "Herbicidal activity score", "setting": "Amaranthus palmeri [3]; [8]", "value": 85},
      {"measurement": "Herbicidal activity score", "setting": "Amaranthus palmeri [3]; [9]", "value": 93},
      {"measurement": "Herbicidal activity score", "setting": "Amaranthus palmeri [3]; [10]", "value": 98},
      {"measurement": "Herbicidal activity score", "setting": "Amaranthus palmeri [3]; 250 g/ha, 0.02% MIPA, 2% TWEEN20, 2% AGNIQUE, 0.1% Ca-LAS, 0.04% BSU, 0.05% Break-Thru", "value": 90},
      {"measurement": "Herbicidal activity score", "setting": "Amaranthus palmeri [3]; [11]", "value": 97},
      {"measurement": "Herbicidal activity score", "setting": "Amaranthus palmeri [3]; [12]", "value": 100},
      {"measurement": "Herbicidal activity score", "setting": "S. viridis; 500 g/ha, 0.8% MIPA, 0.25% Genapol, 1% AGNIQUE, 0.05% Ca-LAS, 0.02% BSU", "value": 70},
      {"measurement": "Herbicidal activity score", "setting": "S. viridis; 750 g/ha, 0.2% MIPA, 2% TWEEN20, 1% AGNIQUE, 0.05% Ca-LAS, 0.02% BSU", "value": 70},
      {"measurement": "Herbicidal activity score", "setting": "S. viridis; 1500 g/ha, 0.8% MIPA, 0.25% Genapol, 2% HASTEN", "value": 100},
      {"measurement": "Herbicidal activity score", "setting": "Setaria viridis [4]; 1 mg/ml in 0.015% Ammonium hydroxide, 0.25% Adsee", "value": 10},
      {"measurement": "Herbicidal activity score", "setting": "Setaria viridis [4]; 1 mg/ml in 0.015% Ammonium hydroxide, 0.25% Genapol X-080", "value": 70},
      {"measurement": "Herbicidal activity score", "setting": "Setaria viridis [4]; 1 mg/ml in 0.015% Ammonium hydroxide, 0.7% Sodium Lauryl Ether sulfate", "value": 100},
      {"measurement": "Herbicidal activity score", "setting": "Setaria viridis [4]; 1 mg/ml in 0.015% Ammonium hydroxide, 1% AGNIQUE, 0.05% Ca-LAS, 0.02% BSU", "value": 70},
      {"measurement": "Herbicidal activity score", "setting": "Setaria viridis [4]; 1 mg/ml in 0.015% Ammonium hydroxide, 2% Tween 20, scale 0-100", "value": 80},
      {"measurement": "Herbicidal activity score", "setting": "Setaria viridis [4]; 1 mg/ml in 0.037% MIPA, 0.25% Adsee", "value": 40},
      {"measurement": "Herbicidal activity score", "setting": "Setaria viridis [4]; 1 mg/ml in 0.037% MIPA, 0.25% Genapol X-080", "value": 100},
      {"measurement": "Herbicidal activity score", "setting": "Setaria viridis [4]; 1 mg/ml in 0.037% MIPA, 0.7% Sodium Lauryl Ether sulfate", "value": 100},
      {"measurement": "Herbicidal activity score", "setting": "Setaria viridis [4]; 1 mg/ml in 0.037% MIPA, 1% AGNIQUE, 0.05% Ca-LAS, 0.02% BSU", "value": 70},
      {"measurement": "Herbicidal activity score", "setting": "Setaria viridis [4]; 1 mg/ml in 0.037% MIPA, 2% Tween 20", "value": 100},
      {"measurement": "Activity Score", "setting": "Setaria viridis [4]; 2% TWEEN 20, 5.2 mM Ammonium hydroxide, 0.05% Break-Thru, scale 0-100", "value": 90},
      {"measurement": "Activity Score", "setting": "Echinochloa colonum", "value": 70},
      {"measurement": "Activity Score", "setting": "Lolium multiflorum", "value": 50},
      {"measurement": "Activity Score", "setting": "Solanum nigrum", "value": 60}
    ]}
  ]
}
